In patent US8129366B2, “VLA-4 inhibitory drug” (Daiichi Sankyo Company, Limited, priority 2005, dated 2012):
Converted amounts (≈) assume the structure as drawn.

Columns and labels:
[1] = Solubility test in first and second liquid of the Japanese Pharmacopoeia; conditions: Solubility
Procedure: The solubilities of the substance under test in the first liquid (JP1, pH=1.2) of the Japanese Pharmacopoeia and the second liquid (JP2, pH=6.8) of the Japanese Pharmacopoeia, were evaluated.

[2] = molecular target: T1, hα4 and β1 integrins (Homo sapiens, UniProt P05556+P13612); assay: In vitro inhibition of binding between CHO cells expressing hα4 and β1 integrins and Eu3+-hVCAM-1 D1D7-IgG; conditions: for Ki: CHO cells expressing hα4 and β1 integrins, Eu3+-hVCAM-1 D1D7-IgG ligand, without HSA; for IC50: in the presence of 3% human serum albumin (HSA final concentration 3%)
T1 construct: expressed in transfected cells; host or cells: CHO cells
T1 sequence (P13612 34-1032): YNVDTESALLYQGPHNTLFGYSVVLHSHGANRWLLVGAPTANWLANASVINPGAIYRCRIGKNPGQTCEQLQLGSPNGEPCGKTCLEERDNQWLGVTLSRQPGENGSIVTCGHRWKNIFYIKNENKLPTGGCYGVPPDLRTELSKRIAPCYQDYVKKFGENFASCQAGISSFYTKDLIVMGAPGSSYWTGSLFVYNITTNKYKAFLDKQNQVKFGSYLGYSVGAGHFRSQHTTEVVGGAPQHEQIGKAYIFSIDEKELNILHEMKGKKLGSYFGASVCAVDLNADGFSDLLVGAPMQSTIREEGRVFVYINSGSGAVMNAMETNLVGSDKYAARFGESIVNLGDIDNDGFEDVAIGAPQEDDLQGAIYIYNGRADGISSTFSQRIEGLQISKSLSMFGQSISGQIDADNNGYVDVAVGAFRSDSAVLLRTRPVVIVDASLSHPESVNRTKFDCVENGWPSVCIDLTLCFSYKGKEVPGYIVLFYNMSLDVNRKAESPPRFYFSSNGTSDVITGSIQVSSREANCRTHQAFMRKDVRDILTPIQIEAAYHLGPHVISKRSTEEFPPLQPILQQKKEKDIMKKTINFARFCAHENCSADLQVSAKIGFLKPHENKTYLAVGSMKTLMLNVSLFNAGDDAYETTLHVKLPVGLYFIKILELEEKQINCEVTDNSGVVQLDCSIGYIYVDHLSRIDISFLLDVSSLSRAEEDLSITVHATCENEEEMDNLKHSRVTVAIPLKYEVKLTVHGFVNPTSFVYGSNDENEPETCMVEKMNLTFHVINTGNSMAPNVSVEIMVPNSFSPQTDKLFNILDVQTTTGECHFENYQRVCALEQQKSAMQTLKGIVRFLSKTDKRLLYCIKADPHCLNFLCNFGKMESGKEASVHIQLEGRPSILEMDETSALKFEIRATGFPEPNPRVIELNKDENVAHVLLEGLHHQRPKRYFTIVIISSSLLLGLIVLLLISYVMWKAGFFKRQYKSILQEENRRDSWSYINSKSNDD
T1 sequence (P05556 21-798): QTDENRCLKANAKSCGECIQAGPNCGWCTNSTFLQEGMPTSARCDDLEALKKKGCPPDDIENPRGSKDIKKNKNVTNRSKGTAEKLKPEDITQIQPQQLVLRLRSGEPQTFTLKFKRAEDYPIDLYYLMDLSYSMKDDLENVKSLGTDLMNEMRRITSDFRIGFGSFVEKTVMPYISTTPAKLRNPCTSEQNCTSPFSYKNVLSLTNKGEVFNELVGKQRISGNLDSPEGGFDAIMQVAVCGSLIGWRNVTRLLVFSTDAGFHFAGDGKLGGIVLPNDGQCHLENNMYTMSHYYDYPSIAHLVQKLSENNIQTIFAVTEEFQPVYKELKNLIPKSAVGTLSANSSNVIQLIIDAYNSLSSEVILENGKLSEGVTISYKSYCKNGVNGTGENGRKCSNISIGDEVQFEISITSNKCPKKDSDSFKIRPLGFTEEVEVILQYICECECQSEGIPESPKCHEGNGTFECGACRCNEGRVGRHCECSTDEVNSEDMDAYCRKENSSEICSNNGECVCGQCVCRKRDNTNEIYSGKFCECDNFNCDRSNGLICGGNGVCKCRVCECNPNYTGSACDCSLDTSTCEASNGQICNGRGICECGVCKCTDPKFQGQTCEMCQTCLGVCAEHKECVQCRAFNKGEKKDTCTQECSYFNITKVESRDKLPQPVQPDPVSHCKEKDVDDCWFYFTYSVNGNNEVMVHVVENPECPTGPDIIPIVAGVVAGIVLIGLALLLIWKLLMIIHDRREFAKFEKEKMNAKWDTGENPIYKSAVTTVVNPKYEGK
Summary of the method: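 Transfected CHO cells, cultured 2 days, were incubated with compound and Eu³⁺-hVCAM-1 D1D7-IgG (diluted to 2 nM) for 1 h at room temperature. Buffer was 25 mM HEPES pH 7.5 with 1 mM Ca²⁺, 1 mM Mg²⁺, 4 mM Mn²⁺ and 0.1% BSA, ±3% HSA final. Cells were washed at 4 °C and read by DELFIA time-resolved fluorescence; Ki was derived from IC50 using the Scatchard Kd.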

[3] = first liquid of the Japanese Pharmacopoeia (JP1), pH 1.2, simulated gastric fluid, First liquid of Japanese Pharmacopoeia (μg/mL), JP1, pH=1.2
[4] = second liquid of the Japanese Pharmacopoeia (JP2), pH 6.8, aqueous buffer, Second liquid of Japanese Pharmacopoeia (μg/mL), JP2, pH=6.8

Structure (SMILES)	solubility [1, 3] [µg/mL]	solubility [1, 4] [µg/mL]	Ki [2] [nM]	IC50 [2] [nM]
CCO[C@H]1CN([C@H]2C[C@@H](CO[C@H]3CC[C@H](C(=O)O)CC3)N(C(=O)Cc3cc(Cl)c(NC(=O)c4cn(C)c5ccccc45)cc3Cl)C2)C[C@H]1OCC [Example 63, Trans-4-[1-[[2,5-dichloro-4-[(1-methyl-1H-indol-3-ylcarbonyl)amino]phenyl]acetyl]-(4S)-(3,4-cis-diethoxypyrrolidin-1-yl)-(2S)-pyrrolidinylmethoxy]cyclohexanecarboxylic acid]	1000 (≈ 1340 µM)	1000 (≈ 1340 µM)	4.7	23
CO[C@@H]1CCN([C@H]2C[C@@H](CO[C@H]3CC[C@H](C(=O)O)CC3)N(C(=O)Cc3cc(Cl)c(NC(=O)c4csc5ccccc45)cc3F)C2)C1 [Example 32, Trans-4-[1-[[4-[(benzo[b]thiophen-3-ylcarbonyl)amino]-5-chloro-2-fluorophenyl]acetyl]-(4S)-[(3R)-methoxypyrrolidin-1-yl]-(2S)-pyrrolidinylmethoxy]cyclohexanecarboxylic acid]	1700 (≈ 2530 µM)	1690 (≈ 2510 µM)	0.74	3.5
CC(C)N1CCN([C@H]2C[C@@H](CO[C@H]3CC[C@H](C(=O)O)CC3)N(C(=O)Cc3cc(Cl)c(NC(=O)c4cn(C)c5ccccc45)cc3Cl)C2)CC1 [Example 113, Trans-4-[1-[[2,5-dichloro-4-[(1-methyl-1H-indol-3-ylcarbonyl)amino]phenyl]acetyl]-(4S)-(4-isopropylpiperazin-1-yl)-(2S)-pyrrolidinylmethoxy]cyclohexanecarboxylic acid]	1000 (≈ 1400 µM)	1000 (≈ 1400 µM)	2.8	9.5
CCO[C@H]1CCN([C@H]2C[C@@H](CO[C@H]3CC[C@H](C(=O)O)CC3)N(C(=O)Cc3cc(Cl)c(NC(=O)c4cn(C)c5ccccc45)cc3Cl)C2)C1 [Example 36, Trans-4-[1-[[2,5-dichloro-4-[(1-methyl-1H-indol-3-ylcarbonyl)amino]phenyl]acetyl]-(4S)-[(3S)-ethoxypyrrolidin-1-yl]-(2S)-pyrrolidinylmethoxy]cyclohexanecarboxylic acid]	1940 (≈ 2770 µM)	1840 (≈ 2630 µM)	5.9	24
COC1CN([C@H]2C[C@@H](CO[C@H]3CC[C@H](C(=O)O)CC3)N(C(=O)Cc3cc(Cl)c(NC(=O)c4cn(C)c5ccccc45)cc3F)C2)C1 [Example 1]	> 2000	> 2000	1.9	15
COC1CCN([C@H]2C[C@@H](CO[C@H]3CC[C@H](C(=O)O)CC3)N(C(=O)Cc3cc(Cl)c(NC(=O)c4csc5ccccc45)cc3F)C2)CC1 [Example 103, Trans-4-[1-[[4-[(benzo[b]thiophen-3-ylcarbonyl)amino]-5-chloro-2-fluorophenyl]acetyl]-(4S)-(4-methoxypiperidin-1-yl)-(2S)-pyrrolidinylmethoxy]cyclohexanecarboxylic acid]	> 2000	1360 (≈ 1990 µM)	0.32	2.2
Cn1cc(C(=O)Nc2cc(Cl)c(CC(=O)N3C[C@@H](N4CCCOCC4)C[C@H]3CO[C@H]3CC[C@H](C(=O)O)CC3)cc2Cl)c2ccccc21 [Example 165, Trans-4-[1-[[2,5-dichloro-4-[(1-methyl-1H-indol-3-ylcarbonyl)amino]phenyl]acetyl]-(4S)-([1,4]-oxazepan-4-yl)-(2S)-pyrrolidinylmethoxy]cyclohexanecarboxylic acid]	> 2000	> 2000	8.2	12
COC[C@@H]1C[C@H](OC)CN1[C@H]1C[C@@H](CO[C@H]2CC[C@H](C(=O)O)CC2)N(C(=O)Cc2cc(Cl)c(NC(=O)c3cn(C)c4ccccc34)cc2Cl)C1 [Example 46, Trans-4-[1-[[2,5-dichloro-4-[(1-methyl-1H-indol-3-ylcarbonyl)amino]phenyl]acetyl]-(4S)-[(2S)-methoxymethyl-(4S)-methoxypyrrolidin-1-yl]-(2S)-pyrrolidinylmethoxy]cyclohexanecarboxylic acid]	1200 (≈ 1640 µM)	1200 (≈ 1640 µM)	7.3	15
C[C@@H]1CN([C@H]2C[C@@H](CO[C@H]3CC[C@H](C(=O)O)CC3)N(C(=O)Cc3ccc(NC(=O)c4coc5ccccc45)c(Cl)c3)C2)C[C@H](C)O1 [Example 87, Trans-4-[1-[[4-[(benzo[b]furan-3-ylcarbonyl)amino]-3-chlorophenyl]acetyl]-(4S)-(cis-2,6-dimethylmorpholin-4-yl)-(2S)-pyrrolidinylmethoxy]cyclohexanecarboxylic acid]	1200 (≈ 1840 µM)	1200 (≈ 1840 µM)	0.95	8.1
CCO[C@@H]1CCN([C@H]2C[C@@H](CO[C@H]3CC[C@H](C(=O)O)CC3)N(C(=O)Cc3cc(Cl)c(NC(=O)c4csc5ccccc45)cc3F)C2)C1 [Example 34, Trans-4-[1-[[4-[(benzo[b]thiophen-3-ylcarbonyl)amino]-5-chloro-2-fluorophenyl]acetyl]-(4S)-[(3R)-ethoxypyrrolidin-1-yl]-(2S)-pyrrolidinylmethoxy]cyclohexanecarboxylic acid]	> 2000	1640 (≈ 2390 µM)	2	9.9
CO[C@@H]1CCN([C@H]2C[C@@H](CO[C@H]3CC[C@H](C(=O)O)CC3)N(C(=O)Cc3cc(Cl)c(NC(=O)c4cn(C)c5ccccc45)cc3Cl)C2)C1 [Example 33, Trans-4-[1-[[2,5-dichloro-4-[(1-methyl-1H-indol-3-ylcarbonyl)amino]phenyl]acetyl]-(4S)-[(3R)-methoxypyrrolidin-1-yl]-(2S)-pyrrolidinylmethoxy]cyclohexanecarboxylic acid]	> 2000	> 2000	5.6	20
CO[C@H]1CN([C@H]2C[C@@H](CO[C@H]3CC[C@H](C(=O)O)CC3)N(C(=O)Cc3cc(Cl)c(NC(=O)c4coc5ccccc45)cc3Cl)C2)C[C@H]1OC [Example 60, Trans-4-[1-[[4-[(benzo[b]furan-3-ylcarbonyl)amino]-2,5-dichlorophenyl]acetyl]-(4S)-(cis-3,4-dimethoxypyrrolidin-1-yl)-(2S)-pyrrolidinylmethoxy]cyclohexanecarboxylic acid]	1000 (≈ 1420 µM)	1000 (≈ 1420 µM)	7.9	18
COCC1CCN([C@H]2C[C@@H](CO[C@H]3CC[C@H](C(=O)O)CC3)N(C(=O)Cc3cc(Cl)c(NC(=O)c4csc5ccccc45)cc3F)C2)CC1 [Example 99, Trans-4-[1-[[4-[(benzo[b]thiophen-3-ylcarbonyl)amino]-5-chloro-2-fluorophenyl]acetyl]-(4S)-[(4-methoxymethyl)piperidin-1-yl]-(2S)-pyrrolidinylmethoxy]cyclohexanecarboxylic acid]	> 2000	1020 (≈ 1450 µM)	0.34	3.8
CCOC1CN([C@H]2C[C@@H](CO[C@H]3CC[C@H](C(=O)O)CC3)N(C(=O)Cc3cc(Cl)c(NC(=O)c4cn(C)c5ccccc45)cc3Cl)C2)C1 [Example 20, Trans-4-[1-[[2,5-dichloro-4-[(1-methyl-1H-indol-3-ylcarbonyl)amino]phenyl]acetyl]-(4S)-(3-ethoxyazetidin-1-yl)-(2S)-pyrrolidinylmethoxy]cyclohexanecarboxylic acid]	> 2000	1920 (≈ 2800 µM)	3.9	40
O=C(Nc1cc(F)c(CC(=O)N2C[C@@H](N3CC(N4CCCCC4)C3)C[C@H]2CO[C@H]2CC[C@H](C(=O)O)CC2)cc1Cl)c1csc2ccccc12 [Example 28, Trans-4-[1-[[4-[(benzo[b]thiophen-3-ylcarbonyl)amino]-5-chloro-2-fluorophenyl]acetyl]-(4S)-[3-(piperidin-1-yl)azetidin-1-yl]-(2S)-pyrrolidinylmethoxy]cyclohexanecarboxylic acid]	1100 (≈ 1550 µM)	1100 (≈ 1550 µM)	2.6	12
CO[C@H]1CN([C@H]2C[C@@H](CO[C@H]3CC[C@H](C(=O)O)CC3)N(C(=O)Cc3cc(Cl)c(NC(=O)c4coc5ccccc45)cc3Cl)C2)C[C@@H]1OC [Example 54, Trans-4-[1-[[4-[(benzo[b]furan-3-ylcarbonyl)amino]-2,5-dichlorophenyl]acetyl]-(4S)-[(3S,4S)-dimethoxypyrrolidin-1-yl]-(2S)-pyrrolidinylmethoxy]cyclohexanecarboxylic acid]	1000 (≈ 1420 µM)	1000 (≈ 1420 µM)	3.4	25
Cn1cc(C(=O)Nc2cc(F)c(CC(=O)N3C[C@@H](N4CCOCC4)C[C@H]3CO[C@H]3CC[C@H](C(=O)O)CC3)cc2Cl)c2ccccc21 [Example 78, Trans-4-[1-[[5-chloro-2-fluoro-4-[(1-methyl-1H-indol-3-ylcarbonyl)amino]phenyl]acetyl]-(4S)-(morpholin-4-yl)-(2S)-pyrrolidinylmethoxy]cyclohexanecarboxylic acid]	> 2000	> 2000	1.5	5.2
C[C@@H]1CN([C@H]2C[C@@H](CO[C@H]3CC[C@H](C(=O)O)CC3)N(C(=O)Cc3cc(Cl)c(NC(=O)c4cn(C)c5ccccc45)cc3F)C2)C[C@H](C)N1CCF [Example 147, Trans-4-[1-[[5-chloro-2-fluoro-4-[(1-methyl-1H-indol-3-ylcarbonyl)amino]phenyl]acetyl]-(4S)-[cis-2,6-dimethyl-1-(2-fluoroethyl)piperazin-4-yl]-(2S)-pyrrolidinylmethoxy]cyclohexanecarboxylic acid]	1400 (≈ 1920 µM)	1400 (≈ 1920 µM)	3.2	12
